This is an account of results in US20240391954A1, “MC4R AGONIST PEPTIDES” (The Regents of the University of Michigan, priority 2021, published 2024).

SMILES strings stand for the structures. Positions of bridges follow the written chain, without caps; N, C: chain ends. Non-standard residues stand in square brackets, D forms with d. Residues, ends and D or L forms follow the SMILES beside them. NMeW = CN[C@@H](Cc1c[nH]c2ccccc12)C(=O)O; NMeH = CN[C@@H](Cc1c[nH]cn1)C(=O)O; Cit = NC(=O)NCCC[C@H](N)C(=O)O; Aib = CC(C)(N)C(=O)O

Holding throughout (format): cell-based
Assay [1] addresses T1, human MC3R (Homo sapiens, UniProt P41968).
T1 construct: expressed in transfected cells; host or cells: HEK-293 cells stably expressing the GScAMP22F split-luciferase cAMP sensor (parent reporter line from Promega); MC3R clone generated in-house, G418 selection
Nature of the assay: split-luciferase cAMP sensor assay, agonist mode (measurement window 1), hMC3R. Conditions: for Emax: % maximal activation, read-out: MC3R cAMP % max activation; for Emax / EC50: agonist mode; for EC50: HEK-293 cells stably expressing hMC3R, read-out: MC3R cAMP EC50; for MC4R selectivity vs MC3R: MC4R versus MC3R. The procedure, abridged:
(§1)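 EC50 values come from a four-parameter variable-slope fit of luminescence in measurement window 1, capturing direct peptide effects on receptor-expressing cells with a cAMP22f luciferase sensor. Cells were preloaded with 4% D-luciferin, serum-free medium; 20 μM forskolin normalized for cell number and transducer efficiency.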

Assay [2] deals with T2, human MC1R (Homo sapiens, UniProt Q01726).
T2 construct: expressed in transfected cells; host or cells: HEK-293 cells stably expressing hMC1R and the GScAMP22F cAMP sensor
T2 sequence (Q01726 whole entry): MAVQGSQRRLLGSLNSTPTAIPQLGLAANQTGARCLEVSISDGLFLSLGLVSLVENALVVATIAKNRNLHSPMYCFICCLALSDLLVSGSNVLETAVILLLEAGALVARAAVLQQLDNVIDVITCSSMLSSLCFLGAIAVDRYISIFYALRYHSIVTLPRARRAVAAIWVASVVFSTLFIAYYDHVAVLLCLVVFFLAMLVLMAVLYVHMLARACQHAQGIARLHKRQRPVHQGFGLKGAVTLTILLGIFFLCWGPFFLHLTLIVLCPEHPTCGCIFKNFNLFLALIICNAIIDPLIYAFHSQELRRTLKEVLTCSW
Nature of the assay: split-luciferase cAMP sensor assay, agonist mode, hMC1R. Conditions: MC4R versus MC1R. The protocol: FIG. 4A-B. (A) Pharmacological properties of exemplary MC4R agonist peptides, including those with improved efficacy in the MC4R+/− mouse (CTX-1211, CTX-1227, and CTX-1228). Concentration-response agonist curves for peptides indicated at the human MC4R (red), human MC3R (blue), human MC5R (green), and human MC1R (black) were determined by a split-luciferase cAMP sensor dynamic assay in HEK-293 cells stably expressing the hMC1R, hMC3R, hMC4R, or hMC5R and the GScAMP22F cAMP sensor. Each data point represents the mean±SEM of two experiments with three replicates each per experiment. Data is normalized to the ECmax of α-MSH. (B) Same as above, for peptides representing reduced activity at the hMC1R. Inset tables indicate EC50 values for the ligand indicated for each receptor.
The assay for the determination of the cAMP response in live cells was described previously. (Yu et al., 2020, Science 368, 428-433; incorporated by reference in its entirety). Cells were seeded at a density of 20,000 cells per well using 384-well poly-D lysine-coated, clear bottom, and black-wall assay plates (Corning Inc. Corning, NJ). Cells were allowed to attach to the plates for 18 to 24 h after which growth media was removed and 20 μl of 4% D-luciferin (Promega) in CO2 independent, serum-free medium (Thermo Fisher Scientific) was added to each well. The luciferase substrate was allowed to permeate the cells for 120 min at 37° C. Intracellular cAMP levels were measured using an FDSS 7000EX Functional Drug Screening System (Hamamatsu Photonics, Hamamatsu, Japan) in the Center for Chemical Genomics at the Life Sciences Institute. This instrument allowed the in-line addition of test-peptides and receptor agonists while simultaneously acquiring the luminescence signal from live cells. Assay read steps were set as follows: baseline acquisition of 2 min, the addition of 10 μl of varying 3× concentrations of test-peptides or vehicle followed by 11 min measurement (measurement window 1), and 10 μl addition of 4× concentration of the endogenous melanocortin agonist α-MSH (Bachem, Bubendorf, Switzerland) followed by an additional 11 min response measurement (measurement window 2). The resulting final concentration of α-MSH was close to the respective receptor EC90 dose for each receptor. Intraplate concentration response curves for α-MSH and SHU-9119 (Phoenix Pharmaceuticals, Burlingame CA) were included as reference controls. A submaximal forskolin (20 μM) concentration was also included to serve as a normalization reference to account for cell number variations and differences in assay transducer efficiency between cell lines.
With this set up it was possible to evaluate the direct effect of the test-peptides on the MC3R and MC4R cell lines during measurement window 1, while the antagonist profile in the presence of EC90 α-MSH was determined on measurement window 2. For data analysis baseline luminescence (i.e. the maximum luminescence signal from the initial 0 to 2 min window) was subtracted from the maximum luminescence obtained during measurement window 1 (2 to 13 min) and measurement window 2 (13 to 24 min) to yield the test-peptide elicited responses. EC50 or IC50 potency values were determined by non-linear regression by fitting the data to a sigmoid four-parameter variable slope model using the GraphPad Prism version 8.4 software package (San Diego CA).

Assay [3] deals with T3, human MC4R (Homo sapiens, UniProt P32245).
T3 construct: host or cells: HEK-293 cells stably expressing the GScAMP22F split-luciferase cAMP sensor and hMC4R, G418 selection
T3 sequence (P32245 whole entry): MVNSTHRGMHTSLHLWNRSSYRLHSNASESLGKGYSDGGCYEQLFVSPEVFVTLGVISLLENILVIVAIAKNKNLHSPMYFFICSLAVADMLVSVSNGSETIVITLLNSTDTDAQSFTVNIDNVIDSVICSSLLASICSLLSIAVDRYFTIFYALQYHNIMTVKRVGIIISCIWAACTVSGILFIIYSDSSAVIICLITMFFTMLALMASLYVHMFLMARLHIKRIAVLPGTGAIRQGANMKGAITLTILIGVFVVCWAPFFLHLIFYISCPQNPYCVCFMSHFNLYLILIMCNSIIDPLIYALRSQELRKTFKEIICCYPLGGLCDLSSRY
Briefly: split-luciferase cAMP sensor assay, agonist mode (measurement window 1), hMC4R. Conditions: agonist mode; for Emax: % maximal activation, read-out: MC4R cAMP % max activation; for EC50: HEK-293 cells stably expressing hMC4R, read-out: MC4R cAMP EC50. The procedure, abridged: as §1

T1 sequence (P41968 whole entry): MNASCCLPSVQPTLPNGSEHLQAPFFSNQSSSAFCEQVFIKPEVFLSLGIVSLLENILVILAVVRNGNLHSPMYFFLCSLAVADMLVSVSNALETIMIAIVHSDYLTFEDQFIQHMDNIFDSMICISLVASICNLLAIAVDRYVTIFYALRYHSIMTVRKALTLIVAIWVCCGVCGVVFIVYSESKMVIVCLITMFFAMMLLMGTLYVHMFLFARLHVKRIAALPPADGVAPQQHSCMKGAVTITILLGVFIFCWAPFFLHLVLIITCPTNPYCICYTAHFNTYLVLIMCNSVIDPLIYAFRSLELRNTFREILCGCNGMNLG

Usually EC50 stands for the concentration that produces a half-maximal response. For the compound `CC(=O)N[C@@H](CCCNC(=N)N)C(=O)N[C@H]1CSSC[C@@H](C(N)=O)NC(=O)[C@@H](Cc2c[nH]c3ccccc23)NC(=O)[C@H](CCCNC(=N)N)NC(=O)[C@@H](Cc2ccccc2)NC(=O)[C@H](CCCNC(N)=O)NC(=O)C(C)(C)NC1=O` [CTX-1290, Arg-cyclo(Cys-Aib-Cit-D-Phe-Arg-D-Trp-Cys)] (Ac-RC[Aib][Cit][dF]R[dW]C-NH2; disulfide 2-8), in assay [1], the Emax was found to be 20%, the EC50 is 1040 nM and the “MC4R selectivity vs MC3R” value worked out at 9.23. Besides, the “MC4R selectivity vs MC1R” value in assay [2] came to 10. The Emax in assay [3] is 88%.
Turning to `COc1ccc(C[C@H]2NC(=O)[C@H](CCCNC(N)=O)NC(=O)C(C)(C)NC(=O)[C@@H](NC(=O)[C@H](CCCNC(=N)N)NC(C)=O)CSSC[C@@H](C(N)=O)NC(=O)[C@H](Cc3ccccc3)NC(=O)[C@H](CCCNC(=N)N)NC2=O)cc1` [CTX-1299, Arg-cyclo(Cys-Aib-Cit-D-Tyr(4-OMe)-Arg-Phe-Cys)] (Ac-RC[Aib][Cit][dY](Me)RFC-NH2; disulfide 2-8), in assay [1], the EC50 was greater than 10000 nM and the “MC4R selectivity vs MC3R” value is greater than 154. In assay [2], the “MC4R selectivity vs MC1R” value came out at 3.66. For the same compound, in assay [3], the Emax amounted to 78%.
With `C[C@H]1NC(=O)CSC[C@@H](C(N)=O)NC(=O)[C@H](Cc2c[nH]c3ccccc23)NC(=O)[C@H](CCCNC(=N)N)NC(=O)[C@@H](Cc2ccccc2)NC(=O)[C@H](Cc2c[nH]cn2)NC1=O` [CTX-1202, Thioether-cyclo((D-Ala-His-D-Phe-Arg-Trp-Cys)], the Emax in assay [1] worked out at 101%; in assay [3] it was 104%. Besides, the “MC4R selectivity vs MC3R” value in assay [1] was 76. Also, the “MC4R selectivity vs MC1R” value in assay [2] worked out at 0.89.
Turning to `C[C@H]1NC(=O)CSC[C@@H](C(N)=O)NC(=O)[C@H](Cc2c[nH]c3ccccc23)N(C)C(=O)[C@H](CCCNC(=N)N)NC(=O)[C@@H](Cc2ccccc2)NC(=O)[C@H](Cc2c[nH]cn2)N(C)C1=O` [CTX-1203, Thioether-cyclo(D-Ala-Nme-His-D-Phe-Arg-Nme-Trp-Cys)] ({CH2CO}-[dA][NMeH][dF]R[NMeW]C-NH2; thioether N-6), in assay [1], the Emax stood at 107% and the “MC4R selectivity vs MC3R” value was found to be 161. Further, in assay [2], the “MC4R selectivity vs MC1R” value amounted to 2.32. In assay [3], the Emax is 109% and the EC50 was found to be 16 nM.
For the compound `CC(=O)N[C@H]1CSSC[C@@H](C(N)=O)NC(=O)[C@H](Cc2ccccc2)NC(=O)[C@H](CCCNC(=N)N)NC(=O)[C@@H](Cc2ccccc2)NC(=O)[C@H](CCCNC(=N)N)NC(=O)C(C)(C)NC1=O` [CTX-1635, cyclo(Cys-Aib-Arg-D-Phe-Arg-Phe-Cys)] (Ac-C[Aib]R[dF]RFC-NH2; disulfide 1-7 (inferred)), in assay [1], the Emax is 70% and the “MC4R selectivity vs MC3R” value amounted to 5.7. The “MC4R selectivity vs MC1R” value in assay [2] is on record as 1.19. The Emax in assay [3] was determined as 112%.
As for `N=C(N)NCCC[C@@H]1NC(=O)CNC(=O)CSC[C@@H](C(N)=O)NC(=O)[C@H](Cc2c[nH]c3ccccc23)NC(=O)[C@H](CCCNC(=N)N)NC(=O)[C@@H](Cc2ccccc2)NC1=O` [CTX-1645, Thioether-cyclo(Gly-Arg-D-Phe-Arg-Trp-Cys)] ({CH2CO}-GR[dF]RWC-NH2; thioether N-6), in assay [1], the Emax turned out to be 97%, the concentration giving a half-maximal response (EC50) was 68 nM and the “MC4R selectivity vs MC3R” value is on record as 42. Also, in assay [2], the “MC4R selectivity vs MC1R” value amounted to 9.04. For the same compound, in assay [3], the Emax was 110% and the EC50 amounted to 1.6 nM.
For `CC(=O)N[C@@H](CCCNC(=N)N)C(=O)N[C@H]1CSSC[C@@H](C(N)=O)NC(=O)[C@H](Cc2c[nH]c3ccccc23)NC(=O)[C@H](CCCNC(=N)N)NC(=O)[C@@H](Cc2ccccc2)NC(=O)[C@H](CCCNC(=N)N)NC(=O)[C@H](C)NC1=O` [CTX-1267, Arg-cyclo(Cys-Ala-Arg-D-Phe-Arg-Trp-Cys)] (Ac-RCAR[dF]RWC-NH2; disulfide 2-8), in assay [1], the Emax was 40%, the concentration giving a half-maximal response (EC50) was determined as 12 nM and the “MC4R selectivity vs MC3R” value worked out at 4.07. The “MC4R selectivity vs MC1R” value in assay [2] was 0.5. For the same compound, in assay [3], the Emax worked out at 96% and the EC50 was 3 nM.
With `CC(=O)N[C@@H](CCCNC(=N)N)C(=O)N[C@H]1CSSC[C@@H](C(N)=O)NC(=O)[C@@H](Cc2c[nH]c3ccccc23)NC(=O)[C@H](CCCNC(=N)N)NC(=O)[C@@H](Cc2ccccc2)NC(=O)[C@H](Cc2c[nH]cn2)NC(=O)C(C)(C)NC1=O` [CTX-1296, Arg-cyclo(Cys-Aib-His-D-Phe-Arg-D-Trp-Cys)], in assay [1], the Emax was determined as 93%, the EC50 is 10 nM and the “MC4R selectivity vs MC3R” value is 22. Besides, the “MC4R selectivity vs MC1R” value in assay [2] is 11. For the same compound, in assay [3], the Emax is 99%.
Regarding `CC(=O)N[C@@H](CCCNC(=N)N)C(=O)N[C@H]1CSSC[C@@H](C(N)=O)NC(=O)[C@H](Cc2c[nH]c3ccccc23)NC(=O)[C@H](CCCNC(=N)N)NC(=O)[C@@H](Cc2ccccc2)NC(=O)[C@H](Cc2c[nH]cn2)NC(=O)C(C)(C)NC1=O` [CTX-1291, Arg-cyclo(Cys-Aib-His-D-Phe-Arg-Trp-Cys)], in assay [1], the Emax is 91% and the “MC4R selectivity vs MC3R” value came to 7.99. Besides, the “MC4R selectivity vs MC1R” value in assay [2] was determined as 1.31. Besides, in assay [3], the Emax was 98%.
For the compound `N=C(N)NCCC[C@@H]1NC(=O)[C@@H](Cc2ccccc2)NC(=O)[C@H](CCCNC(N)=O)NC(=O)CNC(=O)CSC[C@@H](C(N)=O)NC(=O)[C@H](Cc2ccccc2)NC1=O` [CTX-1655, Thioether-cyclo(Gly-Cit-D-Phe-Arg-Phe-Cys)] ({CH2CO}-G[Cit][dF]RFC-NH2; thioether N-6), in assay [1], the EC50 was greater than 10000 nM and the “MC4R selectivity vs MC3R” value is “Not active”. Besides, in assay [2], the “MC4R selectivity vs MC1R” value was “Not active”. In addition, in assay [3], the EC50 was greater than 10000 nM.
Regarding `N=C(N)NCCC[C@@H]1NC(=O)CNC(=O)CSC[C@@H](C(N)=O)NC(=O)[C@H](Cc2ccccc2)NC(=O)[C@H](CCCNC(=N)N)NC(=O)[C@@H](Cc2ccccc2)NC1=O` [CTX-1654, Thioether-cyclo(Gly-Arg-D-Phe-Arg-Phe-Cys)] ({CH2CO}-GR[dF]RFC-NH2; thioether N-6), in assay [1], the Emax was 43% and the “MC4R selectivity vs MC3R” value amounted to 5.41. Further, in assay [2], the “MC4R selectivity vs MC1R” value worked out at 0.62. In assay [3], the Emax amounted to 81%.
With `CC(=O)N[C@H]1CSSC[C@@H](C(N)=O)NC(=O)[C@H](Cc2ccccc2)NC(=O)[C@H](CCCNC(=N)N)NC(=O)[C@@H](Cc2ccccc2)NC(=O)[C@H](CCCNC(=N)N)NC(=O)CNC1=O` [CTX-1638, cyclo(Cys-Gly-Arg-D-Phe-Arg-Phe-Cys)] (Ac-CGR[dF]RFC-NH2; disulfide 1-7), the results for the Emax in assay [1] and in assay [3] were 75% and 110%, respectively. In assay [1], the “MC4R selectivity vs MC3R” value is on record as 1.66. In addition, the “MC4R selectivity vs MC1R” value in assay [2] was determined as 1.04.
